The assay concerns the target T1, Factor XIIIa (activated FXIII) (Homo sapiens, UniProt P00488).
T1 construct: purchased Enzyme Research Laboratories, Ltd
T1 sequence (P00488 39-732 limits assumed): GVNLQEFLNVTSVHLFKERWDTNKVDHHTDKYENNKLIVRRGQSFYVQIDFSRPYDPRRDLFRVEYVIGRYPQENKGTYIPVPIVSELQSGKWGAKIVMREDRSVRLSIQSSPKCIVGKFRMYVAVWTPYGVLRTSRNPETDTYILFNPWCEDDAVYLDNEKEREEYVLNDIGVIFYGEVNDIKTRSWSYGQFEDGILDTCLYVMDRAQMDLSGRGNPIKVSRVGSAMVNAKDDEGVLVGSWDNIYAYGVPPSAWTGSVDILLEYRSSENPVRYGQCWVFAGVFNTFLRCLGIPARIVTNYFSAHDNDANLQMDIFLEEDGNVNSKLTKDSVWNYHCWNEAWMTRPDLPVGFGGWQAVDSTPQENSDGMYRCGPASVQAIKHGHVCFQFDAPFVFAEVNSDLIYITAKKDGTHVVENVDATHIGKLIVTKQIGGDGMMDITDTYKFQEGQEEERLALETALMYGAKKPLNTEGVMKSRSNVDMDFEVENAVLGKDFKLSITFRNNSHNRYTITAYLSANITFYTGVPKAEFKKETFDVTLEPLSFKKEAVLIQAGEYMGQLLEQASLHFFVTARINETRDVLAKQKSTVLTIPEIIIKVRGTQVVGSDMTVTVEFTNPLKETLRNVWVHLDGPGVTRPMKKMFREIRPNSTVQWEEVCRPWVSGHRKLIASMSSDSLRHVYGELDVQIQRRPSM
The experiment in a line: Inactivation of purified Factor XIIIa (monodansylcadaverine incorporation into dimethylcasein, fluorescence). The following applies: for IC50: purified activated FXIII, 50% enzyme inactivation after 5-min incubation with inhibitor at 37° C. in the absence of substrate, read-out: FXIIIa (IC50 in μM). In kind it is biochemical. The procedure:
FXIII (0.5 mg/mL, Enzyme Research Laboratories, Ltd.) in 50 mM Tris-HCl pH 7.5 containing 100 mM NaCl, 40 mM CaCl2, 1 mM EDTA and 0.1% poly(ethylene glycol) (app. MW=8000) was activated by incubation with 10 NIH units/mL of human thrombin (Calbiochem) at 37° C. for 20 min. Thrombin was quenched with 20 NIH units/mL of hirudin from Leech (Sigma).
Inhibitor solution in DMSO (14 μL) was added to 120 μL of 250 mM Tris-Cl pH 7.5 containing 40 mM CaCl2 and 1 mM EDTA and the solution was incubated at 37° C. for two minutes. Activated FXIII (5 μL, 0.5 mg/mL) was added and the mixture was incubated at 37° C. for 5 min.
An assay mixture composed of 50 mM Tris-Cl pH 8.0, 10 mM CaCl2, 1 mM EDTA, 0.1% poly(ethylene glycol) (app. MW=1000) and 20 μM monodansylcadaverine was prepared in a spectrofluorometric cell in a final volume of 2880 μL. Dimethylcasein (8 μL, 1% in 50 mM sodium phosphate pH 7.5) was added and the solution was incubated at 37° C. for a few minutes. To assay the residual enzyme activity, 120 μL of the solution containing the enzyme and the inhibitor was transferred to the assay mixture. The covalent incorporation of monodansylcadaverine into casein was monitored by an increase in fluorescence at λexc=360 nm and λem=500 nm as previously described (Curtis, C. G.; Lorand, L. Methods Enzymol. 1976, 45, 177-191). To determine uninhibited enzyme activity, DMSO was used in place of inhibitor solution in the above assay. IC50 were determined by plotting the percent of remaining enzyme activity against logarithm of inhibitor concentration. IC50 is defined here as an inhibitor concentration resulting in 50% enzyme inactivation after 5-min incubation of the enzyme with the inhibitor in the absence of the substrate. Second order rate constants for inactivation were determined using method described by Kitz and Wilson (Kitz, R.; Wilson, I. J. Biol. Chem. 1962, 237, 3245).

The source of these data is patent US20030225007A1, “Sulfonamide derivatives of 3-substituted imidazol[1,2-d]-1,2,4-thiadiazoles and 3-substituted-[1,2,4] thiadiazolo[4,5-a] benzimidazole as inhibitors of fibrin cross-linking and transglutaminases” (Apotex Inc., priority 2002, published 2003).

One may read the IC50 as the concentration that inhibits the measured activity by half.

Take “4-benzyl-{N^ε-imidazo[1,2-d][1,2,4]thiadiazol- 3-yl-N^α-[(4- methylphenyl)sulfonyl]lysyl}piperidine”: the IC50 was found to be 5.6 µM. The same measure, in the same setting: under `NC(=O)CN(CCCCCCNc1nsc2nccn12)S(=O)(=O)c1cccc2ccccc12` [1 / NH2 / 1-naphthyl, N^2-[6-(imidazo[1,2-d][1,2,4]thiadiazol-3-ylamino)hexyl]-N^2-(1-naphthylsulfonyl)glycinamide] stands 6 µM; under `CCOC(=O)CN(CCCCCCNc1nsc2nccn12)S(=O)(=O)c1cccc2ccccc12` [1 / OEt / 1-naphthyl, Ethyl N-[6-(imidazo[1,2-d][1,2,4]thiadiazol-3-ylamino)hexyl]-N-(1-naphthylsulfonyl) glycinate], 7.4 µM; under `O=C(O)CN(CCCCCCNc1nsc2nccn12)S(=O)(=O)c1cccc2ccccc12` [1 / OH / 1-naphthyl, N-[6-(imidazo[1,2-d][1,2,4]thiadiazol-3-ylamino)hexyl]-N-(1-naphthylsulfonyl)glycine], 6.8 µM. On the same count and under the same terms, under `NC(=O)CCN(CCCCCCNc1nsc2nccn12)S(=O)(=O)c1ccc(F)cc1F` [2 / NH2 / 2-F-4-F-Ph, N^3-[(2,4-difluorophenyl)sulfonyl]-N^3-[6-(imidazo[1,2-d][1,2,4]thiadiazol-3-ylamino)hexyl]-β-alaninamide] stands 8.9 µM; under `CCOC(=O)CCN(CCCCCCNc1nsc2nccn12)S(=O)(=O)c1ccc(F)cc1F` [2 / OEt / 2-F-4-F-Ph, Ethyl N-[(2,4-difluorophenyl)sulfonyl]-N-[6-(imidazo[1,2-d][1,2,4]thiadiazol-3-ylamino)hexyl]-β-alaninate], 6.8 µM.

With `Cc1cc(C)c(S(=O)(=O)NCCCCCCNc2nsc3nccn23)c(C)c1` [2,4,6-TriMe-Ph, N-[6-(imidazo[1,2-d][1,2,4]thiadiazol-3-ylamino)hexyl]-2,4,6-trimethylbenzenesulfonamide], the IC50 amounted to 1.3 µM. With `O=S(=O)(NCCCCCCNc1nsc2nccn12)c1ccc(Br)cc1Br` [2,4-dibromo-N-[6-(imidazo[1,2-d][1,2,4]thiadiazol-3-ylamino)hexyl]benzenesulfonamide], the kinact/KI (purified Factor XIIIa, method of Kitz and Wilson, read-out: Second order rate constant for inactivation) amounted to 13000 M⁻¹ s⁻¹. `N#Cc1ccccc1S(=O)(=O)NCCCCCCNc1nsc2nccn12` [2-CN-Ph, 2-cyano-N-[6-(imidazo[1,2-d][1,2,4]thiadiazol-3-ylamino)hexyl]benzenesulfonamide]: the IC50 came out at 2.7 µM. Same read-out and setting: with `NC(=O)c1ccccc1S(=O)(=O)NCCCCCCNc1nsc2nccn12` [2-CONH2-Ph, 2-({[6-(imidazo[1,2-d][1,2,4]thiadiazol-3-ylamino)hexyl]amino}sulfonyl)benzamide] the figure was 3 µM; with `CNC(=O)c1ccccc1S(=O)(=O)NCCCCCCNc1nsc2nccn12` [2-CONHMe-Ph, 2-({[6-(imidazo[1,2-d][1,2,4]thiadiazol-3-ylamino)hexyl]amino}sulfonyl)-N-methylbenzamide], 13.8 µM. Same read-out and setting: under `O=C(O)c1ccccc1S(=O)(=O)NCCCCCCNc1nsc2nccn12` [2-COOH-Ph, 2-carboxy-N-[6-(imidazo[1,2-d][1,2,4]thiadiazol-3-ylamino)hexyl]benzenesulfonamide] stands 6.8 µM. On the same count and under the same terms, with `COC(=O)c1ccccc1S(=O)(=O)NCCCCCCNc1nsc2nccn12` [2-COOMe-Ph, N-[6-(imidazo[1,2-d][1,2,4]thiadiazol-3-ylamino)hexyl]2-methoxycarbonylbenzenesulfonamide] the figure was 3.2 µM; with `O=S(=O)(NCCCCCCNc1nsc2nccn12)c1ccc(F)cc1Cl` [2-Cl-4-F-Ph, 2-chloro-4-fluoro-N-[6-(imidazo[1,2-d][1,2,4]thiadiazol-3-ylamino)hexyl]benzenesulfonamide], 0.6 µM; with `O=S(=O)(NCCCCCCNc1nsc2nccn12)c1c(F)ccc(Br)c1F` [2-F-3-Br-6-F-Ph, 3-bromo-2,6-difluoro-N-[6-(imidazol[1,2-d][1,2,4]thiadiazol-3-ylamino)hexyl]benzenesulfonamide], 2.1 µM. Turning to `COc1cc(C)c(S(=O)(=O)NCCCCCCNc2nsc3nccn23)c(C)c1C` [2-Me-3-Me-4-OMe-6-Me-Ph, N-[6-(imidazo[1,2-d][1,2,4]thiadiazol-3-ylamino)hexyl]-4-methoxy-2,3,6-trimethylbenzenesulfonamide], the IC50 amounted to 14 µM.

`Cc1cc(S(=O)(=O)NCCCCCCNc2nsc3nccn23)c(C)cc1Cl` [2-Me-4-C1-5-Me-Ph, 4-chloro-2,5-dimethyl-N-[6-(imidazol[1,2-d][1,2,4]thiadiazol-3-ylamino)hexyl]benzenesulfonamide]: the IC50 was found to be 0.95 µM. Still for that read-out and setting: with `O=[N+]([O-])c1cc(C(F)(F)F)ccc1S(=O)(=O)NCCCCCCNc1nsc2nccn12` [2-NO2-4-CF3-Ph, N-[6-(imidazo[1,2-d][1,2,4]thiadiazol-3-ylamino)hexyl]-2-nitro-4-trifluorobenzenesulfonamide] the figure was 0.77 µM.

Turning to `O=S(=O)(NCCCCCCNc1nsc2nccn12)c1ccc(Br)cc1OC(F)(F)F` [2-OCF3-4-Br, 4-bromo-N-[6-(imidazo[1,2-d][1,2,4]thiadiazol-3-ylamino)hexyl]-2-(trifluoromethoxy)benzenesulfonamide], the IC50 worked out at 0.42 µM.

As for `COc1cc(C)ccc1S(=O)(=O)NCCCCCCNc1nsc2nccn12` [2-OMe-4-Me-Ph, N-[6-(imidazol[1,2-d][1,2,4]thiadiazol-3-ylamino)hexyl]-2-methoxy-4-methylbenzenesulfonamide], the IC50 was 24 µM. In the case of `COc1ccc(Br)cc1S(=O)(=O)NCCCCCCNc1nsc2nccn12` [2-OMe-5-Br-Ph, 5-bromo--N-[6-(imidazo[1,2-d][1,2,4]thiadiazol-3-ylamino)hexyl]-2-methoxybenzenesulfonamide], the IC50 was determined as 3.7 µM. The same measure, in the same setting: under `COc1ccc(OC)c(S(=O)(=O)NCCCCCCNc2nsc3nccn23)c1` [2-OMe-5-Ome-Ph, 2,5-dimethoxy-N-[6-(imidazo[1,2-d][1,2,4]thiadiazol-3-ylamino)hexyl]benzenesulfonamide] stands above 5 µM; under `O=S(=O)(NCCCCCCNc1nsc2nccn12)c1ccc2ccccc2c1` [2-naphthyl, N-[6-(imidazo[1,2-d][1,2,4]thiadiazol-3-ylamino)hexyl]naphthalene-2-sulfonamide], 1.3 µM; under `NC(=O)CCCN(CCCCCCNc1nsc2nccn12)S(=O)(=O)c1cccc2ccccc12` [3 / NH2 / 1-naphthyl, 4-[[6-(imidazo[1,2-d][1,2,4]thiadiazol-3-ylamino)hexyl](1-naphthylsulfonyl)amino]butanamide], 8.6 µM. Same read-out and setting: with `O=S(=O)(NCCCCCCNc1nsc2nccn12)c1cccc(C(F)(F)F)c1` [3-CF3-Ph, N-[6-(imidazo[1,2-d][1,2,4]thiadiazol-3-ylamino)hexyl]-3-trifluoromethylbenzenesulfonamide] the figure was 4.7 µM. `O=C(O)c1cccc(S(=O)(=O)NCCCCCCNc2nsc3nccn23)c1` [3-COOH-Ph, 3-carboxy-N-[6-(imidazo[1,2-d][1,2,4]thiadiazol-3-ylamino)hexyl]benzenesulfonamide]: the IC50 was found to be 13.7 µM. `O=S(=O)(NCCCCCCNc1nsc2nccn12)c1ccc(Br)cc1` [4-Br-Ph, 4-bromo-N-[6-(imidazo[1,2-d][1,2,4]thiadiazol-3-ylamino)hexyl]benzenesulfonamide]: the IC50 is 0.93 µM.
